In the NIST ThermoML archive (doi:10.1021/je700714m):
Numbers after ± are expanded uncertainties.

What was measured:
[1] = for mass density / speed of sound / viscosity: 100 kPa, Liquid
[2] = refractive index (Na D-line) (dimensionless); settings: 101.33 kPa, Liquid
[3] = refractive index (Na D-line) (dimensionless); xn = mol fraction of the nth substance listed; settings: 100 kPa, Liquid, x2 = 0
[4] = xn = mol fraction of the nth substance listed; settings: x2 = 0; for mass density / speed of sound / viscosity: 100 kPa, Liquid

COc1ccc(C=O)cc1 [4-methoxybenzaldehyde]
Settings	mass density, [1] [kg/m3]	refractive index, [2]	speed of sound, [1] [m/s]	surface tension liquid-gas, [1] [mN/m]	viscosity, [1] [mPa·s]
303.15 K	1125.5 ± 4.8	1.5571 ± 0.0012	1684 ± 220	99.08 ± 4.9	3.275 ± 0.29
313.15 K	1119.1 ± 5.1	1.5488 ± 0.0012	1631 ± 210	96.11 ± 4.8	2.97 ± 0.27
323.15 K	1114.1 ± 5.5	1.5463 ± 0.0012	1571 ± 200	94.1 ± 4.7	2.442 ± 0.22

Clc1ccccc1 [chlorobenzene]
Settings	mass density, [1] [kg/m3]	refractive index, [2]	speed of sound, [1] [m/s]	surface tension liquid-gas, [1] [mN/m]	viscosity, [1] [mPa·s]
303.15 K	1102 ± 4.7	–	1220 ± 170	33.6 ± 1.9	0.7105 ± 0.074
313.15 K	1080 ± 4.9	–	–	32.3 ± 1.8	0.6914 ± 0.072
323.15 K	1067.4 ± 5.2	1.548 ± 0.0012	695 ± 120	31.26 ± 1.8	0.5543 ± 0.06

Clc1ccccc1 [chlorobenzene] + COc1ccc(C=O)cc1
Settings	mass density, [4] [kg/m3]	refractive index, [3]	speed of sound, [4] [m/s]	surface tension liquid-gas, [4] [mN/m]	viscosity, [4] [mPa·s]
303.15 K	1102 ± 4.7	1.559 ± 0.0012	1220 ± 170	33.6 ± 1.9	0.7105 ± 0.074
313.15 K	1080 ± 4.9	1.5509 ± 0.0012	–	32.3 ± 1.8	0.6914 ± 0.072
323.15 K	1067.4 ± 5.2	1.548 ± 0.0012	695 ± 120	31.26 ± 1.8	0.5543 ± 0.06
